In patent US12264159B2, “Functionalized heterocycles as antiviral agents” (Enanta Pharmaceuticals, Inc., priority 2018, dated 2025):

Legend:
[1] = Compound induced cellular toxicity in HepG2 cells, ATPlite 1Step; assay type: cell-based; details: human, three days exposure, 50% reduction of total ATP vs no drug controls
Description: At day 3, post seeding cells are treated with ATPlite 1Step according to the manufacturer's instructions.

HBV in 2.2.15 cells = test: 2.2.15 cells: viral product in cell lysates quantified via quantitative real time PCR; assay type: cell-based, hepatitis B virus (HBV); details: Hepatitis B virus, 120 h, day 5 post treatment, 50% reduction of viral product vs no drug controls, readout (qPCR, HBsAg or HBeAg) not specified for the column
Outline: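 HBV product was measured at day 5 by lysate qPCR or by supernatant HBsAg/HBeAg ELISA, in 2.2.15 cells seeded at 35,000/well and exposed to 5-fold compound dilution series (0.5% DMSO). EC50 is 50% reduction of viral product relative to untreated controls.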

Row | Compound | CC50 at 3 days [1] [nM] | EC50 (HBV in 2.2.15 cells) [nM]
1 | COc1cccc(C)c1-c1cc2n(n1)C[C@@H](C(C)(C)C)n1cc(C(=O)O)c(=O)cc1-2 [Example 49, (R)-6-(tert-butyl)-2-(2-methoxy-6-methylphenyl)-10-oxo-5,6-dihydro-10H-pyrazolo[1,5-a]pyrido[2,2-c]pyrazine-12-carboxylic acid] | > 25000 | 200 to 1000
2 | CC(C)(C)[C@@H]1Cn2nc(C3CC3)c(-c3cc(F)ccc3F)c2-c2cc(=O)c(C(=O)O)cn21 [Example 155, (R)-6-(tert-butyl)-2-cyclopropyl-1-(2,5-difluorophenyl)-10-oxo-5,6-dihydro-10H-pyrazolo[1,5-a]pyrido[2,1-c]pyrazine-9-carboxylic acid] | > 25000 | < 100
3 | CC(C)(C)[C@@H]1Cn2nc(-c3ccc(F)nc3)cc2-c2cc(=O)c(C(=O)O)cn21 [Example 38, (R)-6-(tert-butyl)-2-(6-fluoropyridin-3-yl)-10-oxo-5,6-dihydro-10H-pyrazolo[1,5-a]pyrido[2,2-c]pyrazine-12-carboxylic acid] | > 25000 | < 100
4 | COc1cccc(-c2c(C3CC3)nn3c2-c2cc(=O)c(C(=O)O)cn2[C@H](C(C)(C)C)C3)c1 [Example 157, (R)-6-(tert-butyl)-2-cyclopropyl-1-(3-methoxyphenyl)-10-oxo-5,6-dihydro-10H-pyrazolo[1,5-a]pyrido[2,1-c]pyrazine-9-carboxylic acid] | > 25000 | < 100
5 | CC(C)(C)[C@@H]1Cn2nc(C3CC3)c(-c3ccccc3O)c2-c2cc(=O)c(C(=O)O)cn21 [Example 165, (R)-6-(tert-butyl)-2-cyclopropyl-1-(2-hydroxyphenyl)-10-oxo-5,6-dihydro-10H-pyrazolo[1,5-a]pyrido[2,1-c]pyrazine-9-carboxylic acid] | > 25000 | < 100
6 | CC(C)(C)[C@@H]1Cn2nc(-c3cccc4nsnc34)cc2-c2cc(=O)c(C(=O)O)cn21 [Example 63, (R)-2-(benzo[c][1,2,5]thiadiazol-4-yl)-6-(tert-butyl)-10-oxo-5,6-dihydro-10H-pyrazolo[1,5-a]pyrido[2,2-c]pyrazine-12-carboxylic acid] | > 25000 | < 100
7 | CC(C)(C)[C@@H]1Cn2nc(C3CC3)c(-c3ccoc3)c2-c2cc(=O)c(C(=O)O)cn21 [Example 152, (R)-6-(tert-butyl)-2-cyclopropyl-1-(furan-3-yl)-10-oxo-5,6-dihydro-10H-pyrazolo[1,5-a]pyrido[2,1-c]pyrazine-9-carboxylic acid] | > 25000 | < 100
8 | CC(C)[C@@H]1Cn2nc(C3CC3)c(-c3cccs3)c2-c2cc(=O)c(C(=O)O)cn21 [Example 131, (R)-2-cyclopropyl-6-isopropyl-10-oxo-1-(thiophen-2-yl)-5,6-dihydro-10H-pyrazolo[1,5-a]pyrido[2,1-c]pyrazine-9-carboxylic acid] | > 25000 | < 100
9 | CC(C)(C)[C@@H]1Cn2nc(-c3c(F)cccc3F)cc2-c2cc(=O)c(C(=O)O)cn21 [Example 29, (R)-6-(tert-butyl)-2-(2,6-difluorophenyl)-10-oxo-5,6-dihydro-10H-pyrazolo[1,5-a]pyrido[2,2-c]pyrazine-12-carboxylic acid] | > 25000 | < 100
10 | COc1cccc(C(N)=O)c1-c1cc2n(n1)C[C@@H](C(C)(C)C)n1cc(C(=O)O)c(=O)cc1-2 [Example 52, (R)-6-(tert-butyl)-2-(2-carbamoyl-6-methoxyphenyl)-10-oxo-5,6-dihydro-10H-pyrazolo[1,5-a]pyrido[2,2-c]pyrazine-12-carboxylic acid] | > 25000 | 200 to 1000
11 | CCOc1ccccc1-c1nc2n(n1)C[C@@H](C(C)(C)C)n1cc(C(=O)O)c(=O)cc1-2 [Example 86, (R)-6-(tert-butyl)-2-(2-ethoxyphenyl)-10-oxo-5,6-dihydro-10H-pyrido[1,2-a][1,2,4]triazolo[5,2-c]pyrazine-12-carboxylic acid] | > 25000 | < 100
12 | Cc1ncc(-c2cc3n(n2)C[C@@H](C(C)(C)C)n2cc(C(=O)O)c(=O)cc2-3)s1 [Example 19, (R)-6-(tert-butyl)-2-(2-methylthiazol-5-yl)-10-oxo-5,6-dihydro-10H-pyrazolo[1,5-a]pyrido[2,2-c]pyrazine-12-carboxylic acid] | > 25000 | < 100
13 | Cc1cccc(F)c1-c1cc2n(n1)C[C@@H](C(C)(C)C)n1cc(C(=O)O)c(=O)cc1-2 [Example 51, (R)-6-(tert-butyl)-2-(2-fluoro-6-methylphenyl)-10-oxo-5,6-dihydro-10H-pyrazolo[1,5-a]pyrido[2,2-c]pyrazine-12-carboxylic acid] | > 25000 | 200 to 1000
14 | CC(C)(C)[C@@H]1Cn2nc(-c3cnc(NC4CC4)nc3)cc2-c2cc(=O)c(C(=O)O)cn21 [Example 15, (R)-6-(tert-butyl)-2-(2-(cyclopropylamino)pyrimidin-5-yl)-10-oxo-5,6-dihydro-10H-pyrazolo[1,5-a]pyrido[2,2-c]pyrazine-12-carboxylic acid] | > 25000 | < 100
15 | COc1cccc(-c2cnn3c2-c2cc(=O)c(C(=O)O)cn2[C@H](C(C)(C)C)C3)c1 [Example 113, (R)-6-(tert-butyl)-1-(3-methoxyphenyl)-10-oxo-5,6-dihydro-10H-pyrazolo[1,5-a]pyrido[2,1-c]pyrazine-9-carboxylic acid] | > 25000 | < 100
16 | CC(C)[C@@H]1Cn2nc(-c3ccccc3)c(-c3ccccc3)c2-c2cc(=O)c(C(=O)O)cn21 [Example 179, (R)-6-isopropyl-10-oxo-1,2-diphenyl-5,6-dihydro-10H-pyrazolo[1,5-a]pyrido[2,1-c]pyrazine-9-carboxylic acid] | > 25000 | < 100
17 | COc1ccc(-c2cnn3c2-c2cc(=O)c(C(=O)O)cn2[C@H](C(C)(C)C)C3)cc1 [Example 114, (R)-6-(tert-butyl)-1-(4-methoxyphenyl)-10-oxo-5,6-dihydro-10H-pyrazolo[1,5-a]pyrido[2,1-c]pyrazine-9-carboxylic acid] | > 25000 | < 100
18 | CC(C)(C)[C@@H]1Cn2ncc(-c3ccccc3OC(F)(F)F)c2-c2cc(=O)c(C(=O)O)cn21 [Example 115, (R)-6-(tert-butyl)-10-oxo-1-(2-(trifluoromethoxy)phenyl)-5,6-dihydro-10H-pyrazolo[1,5-a]pyrido[2,1-c]pyrazine-9-carboxylic acid] | > 25000 | < 100
19 | CC(C)[C@@H]1Cn2nc(C3CC3)c(-c3cccc(F)c3)c2-c2cc(=O)c(C(=O)O)cn21 [Example 134, (R)-2-cyclopropyl-1-(3-fluorophenyl)-6-isopropyl-10-oxo-5,6-dihydro-10H-pyrazolo[1,5-a]pyrido[2,1-c]pyrazine-9-carboxylic acid] | > 25000 | < 100
20 | COCCOc1ccccc1-c1cc2n(n1)C[C@@H](C(C)(C)C)n1cc(C(=O)O)c(=O)cc1-2 [Example 79, (R)-6-(tert-butyl)-2-(2-(2-methoxyethoxy)phenyl)-10-oxo-5,6-dihydro-10H-pyrazolo[1,5-a]pyrido[2,2-c]pyrazine-12-carboxylic acid] | > 25000 | < 100
21 | Cc1cc(-c2cc3n(n2)C[C@@H](C(C)(C)C)n2cc(C(=O)O)c(=O)cc2-3)c(F)cc1F [Example 39, (R)-6-(tert-butyl)-2-(2,4-difluoro-5-methylphenyl)-10-oxo-5,6-dihydro-10H-pyrazolo[1,5-a]pyrido[2,2-c]pyrazine-12-carboxylic acid] | > 25000 | < 100
22 | CC(C)(C)[C@@H]1Cn2nc(-c3ccc(F)cc3)c(-c3ccccc3F)c2-c2cc(=O)c(C(=O)O)cn21 [Example 169, (R)-6-(tert-butyl)-1-(2-fluorophenyl)-2-(4-fluorophenyl)-10-oxo-5,6-dihydro-10H-pyrazolo[1,5-a]pyrido[2,1-c]pyrazine-9-carboxylic acid] | 10000 to 25000 | < 100
23 | CC(C)[C@@H]1Cn2nc(-c3ccccc3F)c(-c3ccccc3F)c2-c2c(F)c(=O)c(C(=O)O)cn21 [Example 182, (R)-11-fluoro-1,2-bis(2-fluorophenyl)-6-isopropyl-10-oxo-5,6-dihydro-10H-pyrazolo[1,5-a]pyrido[2,1-c]pyrazine-9-carboxylic acid] | > 25000 | < 100
24 | CCOc1ccccc1-c1cc2n(n1)C[C@@H](C(C)(C)C)n1cc(C(=O)O)c(=O)cc1-2 [Example 48, (R)-6-(tert-butyl)-2-(2-ethoxyphenyl)-10-oxo-5,6-dihydro-10H-pyrazolo[1,5-a]pyrido[2,2-c]pyrazine-12-carboxylic acid] | > 25000 | < 100
25 | CC(C)(C)[C@@H]1Cn2nc(-c3cccc(F)c3)c(-c3cccc(F)c3)c2-c2cc(=O)c(-c3ncn[nH]3)cn21 [Example 193, (R)-6-(tert-butyl)-1,2-bis(3-fluorophenyl)-9-(1H-1,2,4-triazol-5-yl)-5,6-dihydro-10H-pyrazolo[1,5-a]pyrido[2,1-c]pyrazin-10-one] | > 25000 | < 100
26 | CC(C)(C)[C@@H]1Cn2nc(-c3ccc(C(F)(F)F)cc3)cc2-c2cc(=O)c(C(=O)O)cn21 [Example 9, (R)-6-(tert-butyl)-10-oxo-2-(4-(trifluoromethyl)phenyl)-5,6-dihydro-10H-pyrazolo[1,5-a]pyrido[2,2-c]pyrazine-12-carboxylic acid] | > 25000 | < 100
27 | CC(C)(C)[C@@H]1Cn2nc(-c3ccccc3OC3CCCC3)cc2-c2cc(=O)c(C(=O)O)cn21 [Example 76, (R)-6-(tert-butyl)-2-(2-(cyclopentyloxy)phenyl)-10-oxo-5,6-dihydro-10H-pyrazolo[1,5-a]pyrido[2,2-c]pyrazine-12-carboxylic acid] | > 25000 | < 100
